Our source for the IC50 values is ChEMBL document CHEMBL5506022, “Discovery of Novel Dual Inhibitors Targeting Mutant IDH1 and NAMPT for the Treatment of Glioma with IDH1Mutation” (J Med Chem, 2024).

Assay [1] has as its target Nicotinamide phosphoribosyltransferase (Homo sapiens, UniProt P43490).
Assay [2] addresses Isocitrate dehydrogenase [NADP] cytoplasmic (Homo sapiens, UniProt O75874, R132C). The experiment in a line: Inhibition of recombinant IDH1 R132C mutant (unknown origin) using alpha-ketoglutarate as substrate incubated for 60 mins in presence of NADPH by fluorescence microplate reader.
For assay [3], the target named is Isocitrate dehydrogenase [NADP] cytoplasmic (Homo sapiens, UniProt O75874). Description: Inhibition of wildtype IDH1 (unknown origin) using DL-isocitrate as substrate incubated for 60 mins in presence of NADP by fluorescence microplate reader.
Chain of Isocitrate dehydrogenase [NADP] cytoplasmic (Homo sapiens, UniProt O75874) (O75874 whole entry): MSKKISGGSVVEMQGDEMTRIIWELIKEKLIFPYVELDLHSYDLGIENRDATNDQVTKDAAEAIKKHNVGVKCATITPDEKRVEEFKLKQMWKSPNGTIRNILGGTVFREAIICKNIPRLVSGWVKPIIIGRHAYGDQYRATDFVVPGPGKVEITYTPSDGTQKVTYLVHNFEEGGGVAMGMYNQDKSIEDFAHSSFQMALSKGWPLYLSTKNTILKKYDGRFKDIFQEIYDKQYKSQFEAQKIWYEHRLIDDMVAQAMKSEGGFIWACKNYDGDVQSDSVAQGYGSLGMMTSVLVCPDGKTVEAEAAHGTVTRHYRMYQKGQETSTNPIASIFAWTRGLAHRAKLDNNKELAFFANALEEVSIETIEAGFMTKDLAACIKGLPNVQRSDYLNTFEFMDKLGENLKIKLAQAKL
Assay [4] concerns U-87 MG. It counts as functional, cell-based, U-87MG ATCC. As to conditions: Homo sapiens, 72 h.
Assay [5] concerns U-87 MG. Description: Antiproliferative activity against human U-87 MG cells harboring wildtype IDH1 assessed as inhibition of cell growth incubated for 72 hrs by CCK8 assay. It counts as functional, cell-based, U-87MG ATCC.
Assay [6] deals with U-87 MG. It counts as functional, cell-based, U-87MG ATCC. To be noted: Homo sapiens, 24 h.
Assay [7] deals with U-87 MG. Description: Antiproliferative activity against human U-87 MG cells harboring wildtype IDH1 assessed as inhibition of cell growth incubated for 24 hrs by CCK8 assay. It counts as functional, cell-based, U-87MG ATCC. In general terms: Tetrazolium dyes change colour on reduction, which living cells bring about.
The subject of assay [8] is U-87 MG. The experiment in a line: Antiproliferative activity against human U-87 MG cells harboring wildtype IDH1 assessed as inhibition of cell growth incubated for 48 hrs by CCK8 assay. It counts as functional, cell-based, U-87MG ATCC.
For assay [9], the system named is U-87 MG. It is filed as functional, cell-based, U-87MG ATCC. To be noted: Homo sapiens, 48 h.

Chain of Nicotinamide phosphoribosyltransferase (P43490 whole entry): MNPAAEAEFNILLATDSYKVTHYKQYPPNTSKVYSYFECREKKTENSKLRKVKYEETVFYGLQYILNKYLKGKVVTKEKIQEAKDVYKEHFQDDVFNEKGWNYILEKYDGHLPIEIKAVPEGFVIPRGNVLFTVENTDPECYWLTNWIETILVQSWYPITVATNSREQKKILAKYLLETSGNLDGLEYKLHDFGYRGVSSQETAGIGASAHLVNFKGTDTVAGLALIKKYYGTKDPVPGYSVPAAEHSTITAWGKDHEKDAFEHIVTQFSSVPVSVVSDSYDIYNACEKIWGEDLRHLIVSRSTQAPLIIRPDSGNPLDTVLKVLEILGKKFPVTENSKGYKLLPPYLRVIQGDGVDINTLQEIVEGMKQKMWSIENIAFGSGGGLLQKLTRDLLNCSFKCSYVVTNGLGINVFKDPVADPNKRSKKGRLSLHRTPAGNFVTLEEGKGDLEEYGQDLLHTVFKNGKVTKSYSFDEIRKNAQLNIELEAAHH
Chain of Isocitrate dehydrogenase [NADP] cytoplasmic (Homo sapiens, UniProt O75874, R132C) (O75874 2-414 R132C limits assumed): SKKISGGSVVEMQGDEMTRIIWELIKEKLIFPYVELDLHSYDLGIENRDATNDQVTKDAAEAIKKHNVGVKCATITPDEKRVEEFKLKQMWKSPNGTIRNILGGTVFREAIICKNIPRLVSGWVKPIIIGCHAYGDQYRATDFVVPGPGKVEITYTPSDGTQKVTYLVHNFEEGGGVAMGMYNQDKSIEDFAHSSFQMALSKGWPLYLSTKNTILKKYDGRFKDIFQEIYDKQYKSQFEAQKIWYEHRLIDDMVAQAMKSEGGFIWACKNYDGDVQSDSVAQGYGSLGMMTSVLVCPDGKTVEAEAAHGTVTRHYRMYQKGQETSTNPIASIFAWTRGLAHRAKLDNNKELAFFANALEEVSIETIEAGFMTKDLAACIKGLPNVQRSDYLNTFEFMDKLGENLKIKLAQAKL

As a reminder, the IC50 is the concentration at which inhibition is half-maximal. Consider `C[C@H](Nc1nccc(N2C(=O)OC[C@@H]2c2ccccc2)n1)c1ccc(-c2ccc(NC(=O)/C=C/c3cccnc3)cc2)cc1`, for which the IC50 in assay [1] was 221 nM; in [2], 147 nM; in assay [3] it was 36500 nM.

Turning to `CC(C)[C@H]1COC(=O)N1c1ccnc(N[C@@H](C)c2ccc(-c3ccc(NC(=O)c4cc5ncccc5o4)cc3)cc2)n1`, the figures for the concentration for half-maximal inhibition (IC50) in assay [1], in assay [2] and in assay [3] were 279 nM, 232 nM and 5720 nM, respectively.

For the molecule `C[C@H](Nc1nccc(N2C(=O)OC[C@@H]2[C@@H](C)O)n1)c1ccc(-c2ccc(NC(=O)/C=C/c3cccnc3)cc2)cc1`, the IC50 in assay [1] came out at 32.6 nM; in assay [2] it was 57 nM; in assay [3], 6460 nM.

For the molecule `C[C@H](Nc1nccc(N2C(=O)OC[C@@H]2[C@H](C)F)n1)c1ccc(-c2ccc(NC(=O)c3ccc4nccn4c3)cc2)cn1`, the results for the IC50 in assay [1], in assay [2] and in [3] were 24.3 nM, 369 nM and 26100 nM, respectively.

On to `CC(C)[C@H]1COC(=O)N1c1ccnc(N[C@@H](C)c2ccc(-c3ccc(NC(=O)c4cnccn4)cc3)cc2)n1`, for which the IC50 in [1] was found to be 241 nM; in [2] it was 579 nM; in assay [3] it was 19700 nM.

Regarding `CC(C)[C@H]1COC(=O)N1c1ccnc(N[C@@H](C)c2ccc(NC(=O)C3CCN(C(=O)/C=C/c4cccnc4)C3)cc2)n1` (some centres undefined), the IC50 in assay [1] was determined as 54.1 nM; in [2], 430 nM; in [3], 3710 nM.

In the case of `C[C@H](Nc1nccc(N2C(=O)OC[C@@H]2Cc2ccccc2)n1)c1ccc(-c2ccc(NC(=O)c3ccc4nccn4c3)cc2)cc1`, the IC50 in assay [1] came out at 58.1 nM; in assay [2], 77.4 nM; in assay [3] it was 9740 nM.

Consider `C[C@H](Nc1nccc(N2C(=O)OC[C@@H]2[C@H](C)F)n1)c1ccc(-c2ccc(NC(=O)c3ccc4nccn4c3)cc2)cc1`, for which the IC50 stood at 39.8 nM in assay [1], 231 nM in assay [2] and 7330 nM in [3].

For `CC(C)[C@H]1COC(=O)N1c1ccnc(N[C@@H](C)c2ccc(-c3ccc(NC(=O)NCc4cccnc4)cc3)cc2)n1`, the results for the IC50 in assay [1], in assay [2] and in [3] were 374 nM, 1020 nM and 27000 nM, respectively.

Consider `CC(C)[C@H]1COC(=O)N1c1ccnc(N[C@@H](C)c2ccc(-c3ccc(NC(=O)c4ccc5nccn5c4)cc3)cc2)n1`, for which the IC50 in the assay with U-87 MG [4] was 1460 nM; in assay [1], 193 nM; with U-87 MG [5], 3260 nM; in assay [2], 73.2 nM; in the assay with U-87 MG [6], 3110 nM; in the assay with U-87 MG [7], 2660 nM. Also, the IC50 in assay [3] is 9160 nM; in the assay on U-87 MG [8] it was 1210 nM; in the assay with U-87 MG [9], 3260 nM.

As to `C[C@H](Nc1nccc(N2C(=O)OC[C@@H]2[C@H](C)F)n1)c1ccc(-c2ccc(NC(=O)COc3cccnc3)cc2)cn1`, the IC50 in assay [1] was found to be 32.2 nM; in assay [2], 419 nM; in assay [3] it was 21100 nM.

As for `CC(C)[C@H]1COC(=O)N1c1ccnc(N[C@@H](C)c2ccc(NC(=O)CCCNC(=O)/C=C/c3cccnc3)cc2)n1`, the IC50 in assay [1] came to 45.7 nM; in assay [2], 355 nM; in assay [3], 9400 nM.

Take `CC(C)[C@H]1COC(=O)N1c1ccnc(N[C@@H](C)c2ccc(-c3ccc(NC(=O)c4cc5cnccc5[nH]4)cc3)cc2)n1`: the IC50 in assay [1] is 127 nM; in assay [2], 171 nM; in assay [3] it was 9160 nM.

`C[C@H](Nc1nccc(N2C(=O)OC[C@@H]2[C@H](C)F)n1)c1ccc(-c2ccc(NC(=O)/C=C/c3cccnc3)cc2)cn1`: the values for the IC50 in [1], in assay [2] and in assay [3] were 53.2 nM, 342 nM and 14000 nM, respectively.

`CC(C)[C@H]1COC(=O)N1c1ccnc(N[C@@H](C)c2ccc(NC(=O)CCNC(=O)/C=C/c3cccnc3)cc2)n1`: the values for the IC50 in assay [1], in [2] and in assay [3] were 22.4 nM, 284 nM and 3240 nM, respectively.

Turning to `CC(C)[C@H]1COC(=O)N1c1ccnc(N[C@@H](C)c2ccc(-c3ccc(NC(=O)c4cnc5[nH]ccc5c4)cc3)cc2)n1`, the IC50 is 162 nM in [1], 17.7 nM in assay [2] and 6440 nM in [3].

As to `C[C@H](Nc1nccc(N2C(=O)OC[C@@H]2[C@@H](C)OC(C)(C)C)n1)c1ccc(-c2ccc(NC(=O)c3ccc4nccn4c3)cc2)cc1`, the IC50 was 12.6 nM in assay [1], 57 nM in [2] and 5790 nM in assay [3].

For `C[C@H](Nc1nccc(N2C(=O)OC[C@@H]2[C@@H](C)O)n1)c1ccc(-c2ccc(NC(=O)c3ccc4nccn4c3)cc2)cc1`, the results for the IC50 in assay [1], in assay [2] and in assay [3] were 24.8 nM, 102 nM and 15700 nM, respectively.

For the molecule `C[C@H](Nc1nccc(N2C(=O)OC[C@@H]2Cc2ccccc2)n1)c1ccc(-c2ccc(NC(=O)/C=C/c3cccnc3)cc2)cc1`, the IC50 worked out at 38 nM in [1], 130 nM in assay [2] and 32800 nM in assay [3].

Regarding `CC(C)[C@H]1COC(=O)N1c1ccnc(N[C@@H](C)c2ccc(NC(=O)CCCCNC(=O)/C=C/c3cccnc3)cc2)n1`, the values for the IC50 in [1], in [2] and in assay [3] were 25.5 nM, 405 nM and 6180 nM, respectively.

Take `CC(C)[C@H]1COC(=O)N1c1ccnc(N[C@@H](C)c2ccc(NC(=O)CNC(=O)/C=C/c3cccnc3)cc2)n1`: the results for the IC50 in [1], in assay [2] and in assay [3] were 15.1 nM, 362 nM and 4430 nM, respectively.

Turning to `CC(C)[C@H]1COC(=O)N1c1ccnc(N[C@@H](C)c2ccc(NC(=O)C3CCN(C(=O)/C=C/c4cccnc4)CC3)cc2)n1`, the IC50 was 81.2 nM in [1], 308 nM in assay [2] and 11100 nM in [3].

For `CC(C)[C@H]1COC(=O)N1c1ccnc(N[C@@H](C)c2ccc(-c3ccc(NC(=O)c4cccnc4)cc3)cc2)n1`, the results for the IC50 in assay [1], in assay [2] and in [3] were 109 nM, 509 nM and 36700 nM, respectively.

As for `CC(C)[C@H]1COC(=O)N1c1ccnc(N[C@@H](C)c2ccc(-c3ccc(NC(=O)COc4cccnc4)cc3)cc2)n1`, the IC50 in the assay on U-87 MG [4] was 570 nM; in assay [1], 33.1 nM; with U-87 MG [5], 540 nM; in assay [2], 114 nM; with U-87 MG [6], 1660 nM; in the assay with U-87 MG [7] it was 1020 nM. Besides, the 50% inhibitory concentration (IC50) in [3] stood at 8520 nM; with U-87 MG [8], 890 nM; in the assay on U-87 MG [9], 1180 nM.

Turning to `C[C@H](Nc1nccc(N2C(=O)OC[C@@H]2[C@H](C)F)n1)c1ccc(-c2ccc(NC(=O)/C=C/c3cccnc3)cc2)cc1`, the values for the IC50 in [1], in assay [2] and in [3] were 24.4 nM, 59.3 nM and 6850 nM, respectively.

Take `C[C@H](Nc1nccc(N2C(=O)OC[C@@H]2[C@@H](C)OC(C)(C)C)n1)c1ccc(-c2ccc(NC(=O)/C=C/c3cccnc3)cc2)cc1`: the IC50 in assay [1] was determined as 42.5 nM; in assay [2], 78.7 nM; in assay [3], 14700 nM.

For `C[C@H](Nc1nccc(N2C(=O)OC[C@@H]2[C@@H](C)O)n1)c1ccc(-c2ccc(NC(=O)COc3cccnc3)cc2)cc1`, the IC50 in assay [1] worked out at 42.2 nM; in assay [2], 138 nM; in assay [3], 6940 nM.

For `C[C@H](Nc1nccc(N2C(=O)OC[C@@H]2[C@@H](C)OC(C)(C)C)n1)c1ccc(-c2ccc(NC(=O)COc3cccnc3)cc2)cc1`, the IC50 in assay [1] turned out to be 51.4 nM; in assay [2], 252 nM; in assay [3] it was 33900 nM.

Consider `C[C@H](Nc1nccc(N2C(=O)OC[C@@H]2Cc2ccccc2)n1)c1ccc(-c2ccc(NC(=O)COc3cccnc3)cc2)cc1`, for which the IC50 was 65.4 nM in assay [1], 294 nM in [2] and 35900 nM in assay [3].
